In publication PMC8306139, “A Novel Dialkylamino-Functionalized Chalcone, DML6, Inhibits Cervical Cancer Cell Proliferation, In Vitro, via Induction of Oxidative Stress, Intrinsic Apoptosis and Mitotic Catastrophe” (Molecules, 2021):

Columns and labels:
Type in all cases: cell-based
Bak = assay: Western blot, Bak; conditions: OV2008, 5 and 20 μM, 24 h, vs vehicle
Procedure: (§1) The OV2008 cells were lysed to obtain total cellular protein fractions using Mammalian Protein Extraction Reagent (Catalog # 78501, M-PER™, Thermo Fisher Scientific, Waltham, MA, USA). The cells were seeded in […] at a density of 1 × 10^6 and incubated with 5 or 20 µM of DML6 or 1 µM of doxorubicin (Catalog # T1-2-, TargetMol, Boston, MA, USA) (a positive control) for 24 h. The following day, the cells were washed with ice-cold PBS, scraped using a cell scrapper and collected in Eppendorf tubes. The tubes were centrifuged at 1500 RPM at 4 °C for 5 min. The solution was discarded and replaced with 70 µL of the cell lysis buffer (M-PER reagent, 100 mM Sodium Orthovanadate (NaOV) at a final concentration of 2.5 mM) and a 100X protease inhibitor cocktail (Catalog # P8340, Sigma-Aldrich, St. Louis, MO, USA, final concentration of 1X, containing of aprotinin, bestatin, E-64, leupeptin and pepstatin). Thirty minutes later, the resulting solution was centrifuged at 10,000 RPM at 4 °C for 5 min and the supernatant was collected. The protein concentration of the cell extracts was determined using the bicinchoninic acid (BCA) (Catalog # 786-570, G-Biosciences, Saint Louis, MO, USA) quantification assay. […] Finally, the amount of protein in each blot was quantified using the Image J software (NIH, Bethesda, MD, USA). All data were calculated as a ratio to β-actin.

Bax = assay: Western blot, Bax; conditions: OV2008, 5 and 20 μM, 24 h, vs vehicle
Procedure: as §1

MDA-MB-231 = assay: MTT assay, MDA-MB-231; conditions: Homo sapiens, MDA-MB-231, 72 h, read-out: IC50 ± SD Breast MDA-MB-231
Procedure: The concentration of the tested compounds that produced a 50% inhibition of cell growth (IC50) was determined.
A panel of cancer cell lines, including cervical (OV2008 and HeLa), breast (MDA-MB-231), lung (A549) and colon (LOVO), prostate (DU145), human embryonic kidney cells (HEK293), human colon fibroblast cells (CRL1459), and Chinese hamster ovary cells (CHO), were grown as adherent monolayers in flasks containing Dulbecco’s modified Eagle medium (DMEM), supplemented with 10% fetal bovine serum (FBS) and 1% penicillin and streptomycin, in a humidified incubator with 5% CO2 at 37 °C.
The cells were seeded evenly (180 μL/well) in 96-well plates, at a density of 3000–5000 cells/well and incubated with serial dilutions of the compounds ranging from 0.1 to 100 μM. The MTT dye (4 mg/ml) was added after 72 h of incubation and incubated with the cells for an additional 4 h at 37 °C, allowing the viable cells to biotransform the yellow-colored MTT into dark-blue formazan crystals. Following incubation, the medium was aspirated, and the formazan crystals were dissolved by adding 100 μL of DMSO to each well. Cytation™ 5 and Cytation™ 7 multi-mode detector (Bio Tek Instruments, Winooski, VT, USA) was used to determine the absorbance readings at a wavelength of 570 nm. The IC50 values were determined based on 3 separate experiments, with each experiment carried out in triplicate.

OV2008 cells = assay: Apoptosis and mitochondrial membrane potential (MitoTracker Red / Alexa Fluor 488 annexin V); conditions: 24 h; for percentage of apoptotic cells in quadrant II (Q2): vehicle 8.41%; for percentage of live cells in quadrant I (Q1): vehicle 90.86%
Procedure: MitoTracker® Red and Alexa Fluor 488 annexin V kits for flow cytometry (Molecular Probes Inc., Eugene, OR, USA) were used to determine the mitochondrial membrane potential and apoptosis, respectively, in OV2008 cells, as previously described. OV2008 cells were seeded in 6-well plates and incubated with the vehicle, 5 or 20 μM of DML6 for 24 h. The following day, the cells were trypsinized using 0.25% trypsin, 2.21 mM EDTA, 1×, counted and 4 μL of 10 μM MitoTracker® Red working solution was added to 1 mL of the harvested cells. The cells were incubated at 37 °C with 5% CO2 for 30 min. The cells were washed with ice-cold phosphate-buffered saline (PBS), followed by cell resuspension in 100 μL of the annexin binding buffer. The cell suspensions were then incubated with 5 μL of Alexa Fluor 488 annexin V for 15 min, followed by adding 400 μL of the annexin-binding buffer. Finally, flow cytometry was used to detect the fluorescence of stained cells at the following excitation/emission maximum: Alexa Fluor® 488 annexin V: 499/521 nm; MitoTracker® Red: 579/599 nm, using a flow cytometer BD FACSCanto™ (BD Biosciences, Becton-Dickinson, San Jose, CA, USA) and analyzed using FCS Express 7 plus De Novo software (Glendale, CA, USA).

HeLa = assay: MTT assay, HeLa; conditions: Homo sapiens, HeLa, 72 h, read-out: IC50 ± SD Cervical HeLa
Procedure: Table S1. The antiproliferative efficacy of the DML1-DML12 compounds on the proliferation of cervical cancer cell line.
Figure S1. The efficacy of DML6 in HeLa cancer cells. The cell-viability curve produced by HeLa cells treated with
vehicle (0 μM), 5 or 10 μM of DML6 after 72 h of incubation. Cell survival was determined using the MTT assay. The
IC50 values are represented as the means ± SD of three independent experiments performed in triplicate. […]

[1] = test system: caspase-3/7 in OV2008 cells; assay: Time-dependent apoptosis induction (Caspase-3/7 Green reagent)
Procedure: Cell Event™ Caspase-3/7 Green Detection Reagent from (Catalog # C10423, Life Technologies, Carlsbad, CA, USA), which is a novel fluorogenic substrate for activated caspase-3/7 that is compatible with living cells, was used to determine apoptosis activation in real-time in OV2008 cells incubated with DML6. Briefly, OV2008 cells were seeded in 96-well plates at a density of 1 × 10^3 cell/well. Twenty-four hours later, the cells were incubated with the vehicle (DMEM media with 10% FBS and 1% penicillin and streptomycin), 5 or 20 µM of DML6 for 72 h. Five micromolar of the apoptosis-detecting reagents were added to the cells immediately after DML6 and were incubated for up to 72 h at 37 °C. Fluorescence was determined every 24h using a live cell imaging system (IncuCyte Zoom, Essen Bioscience, Ann Arbor, MI, USA, using an absorption/emission maximum of ~502/530 nm.

With `CN(C)c1ccc(/C=C/C(=O)c2ccc(Cl)cc2Cl)cc1` [DML6, (E)-1-[2,4-dichlorophenyl]-3-(4-(dimethylamino)phenyl)prop-2-en-1-one] as the compound, how does the “expression of the pro-apoptotic protein Bak” value (Bak) read?
The value was “significantly increased the expression”.

What about the “expression of the pro-apoptotic protein Bax” value (Bax) of the same compound?
The value was “significantly increased the expression”.

And the IC50 (MDA-MB-231)?
Its IC50 is 91.9 ± 11.5 µM.

What about the “percentage of apoptotic cells in quadrant II (Q2)” value (OV2008 cells; 5 µM) of the same compound?
Its value is 41.38%.

And the “percentage of live cells in quadrant I (Q1)” value (OV2008 cells; 5 µM)?
The value was 53.39%.

What about the “percentage of apoptotic cells in quadrant II (Q2)” value (OV2008 cells; 20 µM) of the same compound?
Its value is 73.67%.

What about the “percentage of live cells in quadrant I (Q1)” value (OV2008 cells; 20 µM) of the same compound?
The value was 22.37%.

What about the IC50 (HeLa) of the same compound?
The IC50 was 9.08 ± 0.69 µM.

And the “incubation time required to induce apoptosis” value ([1]; 5 µM)?
Its value is “≈ 48 h”.

And the “incubation time required to induce apoptosis” value ([1]; 20 µM)?
Its value is less than 24 h.

What about the “apoptosis induction by activating caspase-3 and caspase-7” value ([1]; 5 or 20 μM, time-dependent, vs vehicle) of the same compound?
Its value is “significantly induced apoptosis”.
